For one data set, the system named is hair-matrix cells. The data set is described as follows: Proliferation effect of cultured hair-matrix cells. In kind it is cell-based, Mouse. Conditions: cultured 6 days; for Relative value of the number of cells: control group = 100%. On the procedure:
Mouse hair tissues were collected and hair-matrix cells were cultured by the method disclosed by Tanigaki, et al., using serum free media (Tanigaki, et al., (1990), Arch. Dermatol. Res. 282: 402-407).
On the first day after the start of culturing hair-matrix cells, the culture media were changed to those containing the above-mentioned chromene compounds.
After culturing the hair-matrix cells for 6 days, they were separated from the culture dishes and the number of cells was counted. The effect of each chromene compound is shown by a relative ratio with the number of cells in the control group (the group cultured in a serum-free medium) being defined as 100%.

For data set [1] the following is noted: reported in Annual Report of Toyama Prefectural Institute for Pharmaceutical Research, 1998; cited from earlier work.

In the case of `COc1cc(C(C)=O)cc2c1OC(C)(C)C=C2` [Acetovanillochromene, 6-acetyl-8-methoxy-2,2-dimethylchromene], the Proliferation rate with hair-matrix cells (1 μg/ml in culture medium) came out at 33 % increase over control; in the data set with hair-matrix cells (10 μg/ml in culture medium), 35 % increase over control. Moreover, the “Relative value of the number of cells” value is recorded as 133 % control in the data set on hair-matrix cells (1 μg/ml in culture medium) and 135 % control in the data set on hair-matrix cells (10 μg/ml in culture medium).

Turning to `COc1c(C(C)=O)cc2c(c1OC)OC(C)(C)C=C2` [Methylripariochromene A, 6-acetyl-7,8-dimethoxy-2,2-dimethylchromene], in the data set on hair-matrix cells (1 μg/ml in culture medium), the Proliferation rate amounted to 12 % increase over control and the “Relative value of the number of cells” value is given as 112 % control. Moreover, in the data set with hair-matrix cells (10 μg/ml in culture medium), the Proliferation rate was 53 % increase over control and the “Relative value of the number of cells” value came out at 153 % control. Besides, in data set [1], the acute toxicity result is “no toxicity”.

Regarding `COc1c(C(C)O)cc2c(c1OC)OC(C)(C)C=C2` (stereo not shown) [Orthochromene A, 6-(1-hydroxyethyl)-7,8-dimethoxy-2,2-dimethylchromene], in the data set with hair-matrix cells (1 μg/ml in culture medium), the Proliferation rate was found to be 18 % increase over control and the “Relative value of the number of cells” value was 118 % control. Also, in the data set on hair-matrix cells (10 μg/ml in culture medium), the Proliferation rate amounted to 44 % increase over control and the “Relative value of the number of cells” value was 144 % control.

The values above are taken from patent publication US20070254946A1, “Hair Growth Stimulants” (priority 2003, published 2007).
